# Experimental data: patent US20110166196A1, “TREATMENT AND PROPHYLAXIS OF EPILEPSY AND FEBRILE SEIZURES” (priority 2008, published 2011)
# Assays:
# [1] = system: excitatory synapses onto CA1 hippocampal interneurons; assay: HFS-induced long-term depression (LTD) of EPSCs, whole-cell recording in hippocampal slices; format: cell-based, rat
# Description: (§1) The basic methods have been detailed previously (McMahon and Kauer, 1997). Sprague-Dawley rats (15-22 days old) were used in the majority of experiments. In addition, we used TRPV1^−/− mice (Caterina et al., 2000) and wild-type C57BL/6 mice aged between 15 and 21 days (Jackson Laboratory). The TRPV1^−/− mice we used have been backcrossed at least 10 times onto a C57BL/6 background and were obtained from homozygous breeding pairs. Control mice were therefore not littermates but were age-matched, wild-type C57BL/6 animals received from the same supplier in the same shipment. All animal protocols were approved by the Brown University Institutional Animal Care and Use Committee. For mouse experiments, only one brain slice per mouse was used for each experiment, so that reported ‘n’ numbers represent the number of animals. Animals were anaesthetized using halothane or isoflurane and quickly decapitated. The brain was rapidly removed and 300 μm thick coronal slices prepared and stored for at least one hour submerged on a net in artificial cerebrospinal fluid (ACSF) containing in mM: 119 NaCl, 26 NaHCO3, 2.5 KCl, 1.0 NaH2PO4, 2.5 CaCl2, 1.3 MgSO4 and 11 dextrose, saturated with 95% O2/5% CO2 (pH 7.4). Slices were then transferred to a submerged recording chamber and bathed in oxygenated ACSF (28-32° C.) containing elevated divalent cations to reduce epileptiform activity (4 mM CaCl2 and 4 mM MgCl2, replacing MgSO4). A surgical cut was made between the CA3 and CA1 regions. The storage of slices submerged on a net rather than in an interface chamber on filter paper may be important in maintaining slice health and improving the likelihood of observing LTD.
# (§2) Slices were continuously perfused with ACSF warmed to 28-32° C. at a flow rate of 1-2 ml/min. Picrotoxin (100 μM) and D-AP5 (50 μM) were added to block GABAA receptor- and NMDAR-mediated synaptic transmission. Whole-cell patch clamp recordings were made from interneurons identified visually in the CA1 stratum radiatum of the hippocampus. […] Patch pipettes were filled with internal recording solution containing in mM: 117 cesium gluconate, 2.8 NaCl, 5 MgCl2, 20 HEPES, 2 ATP-Na^+, 0.3 GTP-Na^+ and 0.6 EGTA. In some experiments 2 μM capsazepine, 140 nM baicalein, or 250 μM GDPβS were also included in the intracellular patch pipette solution. In experiments with BAPTA-containing patch electrodes, EGTA was omitted from the intracellular solution and 25 or 40 mM BAPTA replaced a corresponding amount of cesium gluconate. EPSCs were stimulated at 0.1 Hz (100 μsec) using a bipolar stainless steel stimulating electrode placed in stratum radiatum at least 200 μm from the recorded cell. CA1 interneurons were voltage clamped at −65 mV (not corrected for the liquid junction potential, of ˜10 mV), and EPSCs were evoked by paired pulses with an interval of 50 msec (stimulus intensity typically 50-400 μA). In early experiments, we measured rectification ratios of EPSCs evoked at +40 mV/−60 mV in the presence of 50 μM D-AP5, measured at the time of peak inward synaptic current seen at −70 mV (Lei and McBain, 2004).
# High-frequency stimulation was used to induce LTD (HFS; two 1 sec trains at 100 Hz, inter-train interval 20 sec, at 1.5 times test current intensity) with the neuron held in current-clamp mode, so that the HFS trains were delivered with the membrane potential free to vary. Receptor antagonists were added directly to the ACSF at known concentrations for at least 10 minutes prior to HFS. Control experiments were interleaved with those experiments using receptor antagonists or involving slices from TRPVl^−/− mice. The cell input resistance and series resistance were monitored throughout each experiment; cells were discarded if these values changed by more than 10% during the experiment.
# [2] = system: excitatory synapses onto CA1 hippocampal interneurons; assay: Drug-induced depression of EPSC amplitudes, whole-cell recording in hippocampal slices; format: cell-based, rat
# Description: as §1, §2
# The maximal initial slope of fEPSPs was calculated using a LabVIEW-based program (National Instruments). The peak amplitude of each EPSC was measured by comparing a 10 msec time period immediately prior to the stimulus with the peak of the EPSC using this program as well. Occasionally polysynaptic responses were evoked, and in these cases, only the initial monosynaptic event was measured. To positively identify LTD, EPSCs measured every 10 seconds were averaged in 1 minute intervals. EPSC amplitude values were normalized to control pre-HFS EPSC amplitude values (baseline period of at least 5 minutes prior to HFS) and subjected to analysis of variance (ANOVA) repeated measures analysis with a post-hoc Dunnett's test (GraphPad Prism, Version 4).
# [3] = system: excitatory synapses on interneurons; assay: Drug-induced depression of EPSC amplitudes in slices from TRPV1-/- and C57BL/6 wild-type mice; format: cell-based, mouse; settings: 12-(S)-HPETE 100 nM; TRPV1−/− mice; P=0.33, n=6
# Description: The basic methods have been detailed previously (McMahon and Kauer, 1997). Sprague-Dawley rats (15-22 days old) were used in the majority of experiments. In addition, we used TRPV1^−/− mice (Caterina et al., 2000) and wild-type C57BL/6 mice aged between 15 and 21 days (Jackson Laboratory). The TRPV1^−/− mice we used have been backcrossed at least 10 times onto a C57BL/6 background and were obtained from homozygous breeding pairs. Control mice were therefore not littermates but were age-matched, wild-type C57BL/6 animals received from the same supplier in the same shipment. All animal protocols were approved by the Brown University Institutional Animal Care and Use Committee. For mouse experiments, only one brain slice per mouse was used for each experiment, so that reported ‘n’ numbers represent the number of animals. Animals were anaesthetized using halothane or isoflurane and quickly decapitated. […]
# Slices were continuously perfused with ACSF warmed to 28-32° C. at a flow rate of 1-2 ml/min. […] EPSCs were stimulated at 0.1 Hz (100 μsec) using a bipolar stainless steel stimulating electrode placed in stratum radiatum at least 200 μm from the recorded cell. […] In early experiments, we measured rectification ratios of EPSCs evoked at +40 mV/−60 mV in the presence of 50 μM D-AP5, measured at the time of peak inward synaptic current seen at −70 mV (Lei and McBain, 2004).
# The maximal initial slope of fEPSPs was calculated using a LabVIEW-based program (National Instruments). The peak amplitude of each EPSC was measured by comparing a 10 msec time period immediately prior to the stimulus with the peak of the EPSC using this program as well. Occasionally polysynaptic responses were evoked, and in these cases, only the initial monosynaptic event was measured. To positively identify LTD, EPSCs measured every 10 seconds were averaged in 1 minute intervals. […]
# [4] = system: excitatory synapses onto CA1 hippocampal interneurons; assay: Synaptic failure analysis using minimal stimulation; format: cell-based, rat; settings: 12-(S)-HPETE 100 nM; pre-application 35.2±1.9%; n=6
# Method: as §2, with “CA1 interneurons were voltage clamped at −65 mV (not corrected for the liquid junction potential, of ˜10 mV), and EPSCs were evoked by paired pulses with an interval of 50 msec (stimulus intensity typically 50-400 μA).” left out
# [5] = system: synapses between CA3 and CA1 pyramidal cells; assay: Field EPSP recordings in hippocampal slices; format: cell-based, rat; settings: 100 nM 12-(S)-HPETE; P=0.83, n=5
# Method: The maximal initial slope of fEPSPs was calculated using a LabVIEW-based program (National Instruments). The peak amplitude of each EPSC was measured by comparing a 10 msec time period immediately prior to the stimulus with the peak of the EPSC using this program as well. Occasionally polysynaptic responses were evoked, and in these cases, only the initial monosynaptic event was measured. To positively identify LTD, EPSCs measured every 10 seconds were averaged in 1 minute intervals. EPSC amplitude values were normalized to control pre-HFS EPSC amplitude values (baseline period of at least 5 minutes prior to HFS) and subjected to analysis of variance (ANOVA) repeated measures analysis with a post-hoc Dunnett's test (GraphPad Prism, Version 4). […] EPSC amplitude values 15 to 20 minutes post-HFS were compared between control LTD experiments and those carried out either in transgenic TRPV1^−/− mice, or in the presence of drug using a t-test (unpaired, two-tailed, with Welch's correction if the variances between the groups were unequal). To calculate the effects of capsaicin, 12-(S)-HPETE or WIN 55,212-2 application on basal excitatory glutamatergic transmission, normalized EPSC amplitudes or fEPSP slopes were averaged in the final 5 minutes of drug application and compared with EPSCs/EPSPs 5 minutes prior to drug application. In addition, to measure capsaicin's effects on holding current, the peak change in holding current was measured during bath application of 3 μM capsaicin. The n-values reported refer to the number of slices. All combined data are expressed as mean±the standard error of the mean (s.e.m.).
# TRPV1 channels = target: T1, TRPV1 channels (Mus musculus, UniProt Q704Y3); assay: TRPV1 agonist-evoked inward current and depolarization in CA1 pyramidal neurons; format: cell-based; settings: 12-(S)-HPETE 100 nM bath-applied
# T1 construct: whole-cell recordings from acutely prepared brain slices from wild type C57BL/6 mice; from tissue; host or cells: acute coronal hippocampal slices from P14-P20 wild-type C57BL/6 mice: CA1 pyramidal neurons
# T1 sequence (Q704Y3 whole entry): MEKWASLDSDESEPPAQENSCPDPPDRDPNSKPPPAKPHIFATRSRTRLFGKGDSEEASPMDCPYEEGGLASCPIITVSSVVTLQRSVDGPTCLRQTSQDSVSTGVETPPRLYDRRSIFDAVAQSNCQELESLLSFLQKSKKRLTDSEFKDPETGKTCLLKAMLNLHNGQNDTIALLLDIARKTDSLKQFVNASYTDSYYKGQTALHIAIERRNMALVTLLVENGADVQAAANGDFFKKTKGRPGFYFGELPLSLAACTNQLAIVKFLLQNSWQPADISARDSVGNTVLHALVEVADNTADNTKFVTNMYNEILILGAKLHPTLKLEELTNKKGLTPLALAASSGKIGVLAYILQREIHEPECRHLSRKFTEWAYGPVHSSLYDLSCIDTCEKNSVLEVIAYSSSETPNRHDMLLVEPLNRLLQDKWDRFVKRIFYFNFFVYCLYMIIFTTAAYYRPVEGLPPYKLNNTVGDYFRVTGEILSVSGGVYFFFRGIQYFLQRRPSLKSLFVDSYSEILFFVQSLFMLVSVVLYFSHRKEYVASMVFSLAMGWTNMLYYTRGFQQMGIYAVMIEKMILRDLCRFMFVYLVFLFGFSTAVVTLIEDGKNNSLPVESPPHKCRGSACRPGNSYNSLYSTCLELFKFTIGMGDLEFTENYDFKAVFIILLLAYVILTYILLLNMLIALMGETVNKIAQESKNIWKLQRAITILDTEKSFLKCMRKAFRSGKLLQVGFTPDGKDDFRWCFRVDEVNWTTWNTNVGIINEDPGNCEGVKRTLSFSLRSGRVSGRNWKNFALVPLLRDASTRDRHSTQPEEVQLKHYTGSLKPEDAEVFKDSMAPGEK
structure (smiles),measurement,setting,value
C=C(C)[C@]12C[C@@H](C)[C@@]34O[C@](Cc5ccccc5)(O[C@@H]1[C@@H]3C=C(COC(=O)Cc1cc(I)c(O)c(OC)c1)C[C@]1(O)C(=O)C(C)=C[C@@H]41)O2 [5′-Iodoresiniferatoxin],EPSC amplitudes 15-20 minutes post-HFS in 5′-Iodoresiniferatoxin,"[1]; 5′-Iodoresiniferatoxin 100 nM bath applied prior to HFS, n=7",96.2±13.6 % of control values before HFS
"CCCCC/C=C\C[C@@H](/C=C/C=C\C/C=C\CCCC(=O)O)OO [12-(S)-HPETE, 12-(S)-Hydroperoxyeicosa-5Z, 8Z, 10E, 14Z-tetraenoic acid]",EPSC amplitudes 15-20 minutes post-HFS,"[1]; HFS after 12-(S)-HPETE 100 nM (occlusion), n=6",98.7±15.3 % of control values in 12-(S)-HPETE before HFS
same,EPSC amplitudes after 10-15 minutes in 12-(S)-HPETE,"[2]; 12-(S)-HPETE 100 nM bath-applied, n=8",40.6±11.7 % of pre-drug control values
same,EPSC amplitudes after 10-15 minutes in 12-(S)-HPETE in TRPV1−/− mice,[3],109.0±6.8 % of pre-drug control values
same,average synaptic failures in 12-(S)-HPETE,[4],89.7±3.0%
same,fEPSP slopes after 10-15 minutes in 12-(S)-HPETE,[5],99.0±3.5 % of pre-drug control values
same,12-(S)-HPETE-evoked current in CA1 neuron,TRPV1 channels,induces an inward current
Cc1c(C(=O)NN2CCCCC2)nn(-c2ccc(Cl)cc2Cl)c1-c1ccc(I)cc1 [AM251],EPSC amplitudes 15-20 minutes post-HFS,"[1]; AM251 2 μM bath-applied, n=8",48.6±5.3 % of control values before HFS
same,"EPSC amplitudes after 10-15 minutes in both WIN 55,212-2 and AM251","[2]; AM251 2 μM applied before WIN 55,212-2 1 μM, n=5","101.7±8.9 % of pre-WIN 55,212-2 control values"
"O=C(O)CN(CC(=O)O)c1ccccc1OCCOc1ccccc1N(CC(=O)O)CC(=O)O [BAPTA, 1,2-bis(o-aminophenoxy)ethane-N,N,N′,N′-tetraacetic acid]",cells recorded from with intracellular BAPTA that had LTD,[1]; patch pipette solution containing 25-40 mM BAPTA,6 of 14
same,EPSC amplitudes 15-20 minutes post-HFS with intracellular BAPTA,"[1]; patch pipette solution containing 25-40 mM BAPTA, n=14",90.5±8.5 % of control values before HFS
"N[C@H](CCCP(=O)(O)O)C(=O)O [D-AP5, D(−)-2-amino-5-phosphonovaleric acid]",EPSC amplitudes 15-20 minutes post-HFS,"[1]; D-AP5 50 μM in bath, P<0.001, n=26, LTD not prevented",62.0±5.3 % of control values before HFS
